Activity calls are given as the source filed them.
Columns and labels:
[1] = molecular target: T1, Estrogen receptor (Homo sapiens, UniProt P03372);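 note: potency for inhibiting coactivator peptide recruitment to the receptor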
T1 sequence (P03372 whole entry): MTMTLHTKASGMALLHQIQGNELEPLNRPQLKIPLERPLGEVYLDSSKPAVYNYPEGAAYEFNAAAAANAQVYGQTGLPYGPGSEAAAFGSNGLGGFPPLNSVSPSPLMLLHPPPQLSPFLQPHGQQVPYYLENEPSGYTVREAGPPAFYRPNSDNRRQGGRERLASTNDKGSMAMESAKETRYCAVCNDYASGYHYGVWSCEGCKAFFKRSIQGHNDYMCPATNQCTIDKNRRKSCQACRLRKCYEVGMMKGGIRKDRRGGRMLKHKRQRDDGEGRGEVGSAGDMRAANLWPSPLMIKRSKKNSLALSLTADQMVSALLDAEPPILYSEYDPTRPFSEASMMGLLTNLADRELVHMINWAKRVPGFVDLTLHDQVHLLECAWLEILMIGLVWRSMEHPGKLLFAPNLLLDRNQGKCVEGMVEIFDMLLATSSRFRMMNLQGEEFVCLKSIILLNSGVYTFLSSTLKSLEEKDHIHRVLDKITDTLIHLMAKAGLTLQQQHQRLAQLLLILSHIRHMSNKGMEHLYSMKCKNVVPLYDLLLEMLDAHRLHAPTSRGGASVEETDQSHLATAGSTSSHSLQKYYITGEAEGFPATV

[2] = molecular target: T2, Short transient receptor potential channel 4 (Mus musculus, UniProt Q9QUQ5); assay: calcium entry via TRPC4 opening agents – cell-based, HEK293 TRPC4/mu-opioid, Fluo-4 calcium, dose response (AID 434937); type: functional
T2 sequence (Q9QUQ5 whole entry): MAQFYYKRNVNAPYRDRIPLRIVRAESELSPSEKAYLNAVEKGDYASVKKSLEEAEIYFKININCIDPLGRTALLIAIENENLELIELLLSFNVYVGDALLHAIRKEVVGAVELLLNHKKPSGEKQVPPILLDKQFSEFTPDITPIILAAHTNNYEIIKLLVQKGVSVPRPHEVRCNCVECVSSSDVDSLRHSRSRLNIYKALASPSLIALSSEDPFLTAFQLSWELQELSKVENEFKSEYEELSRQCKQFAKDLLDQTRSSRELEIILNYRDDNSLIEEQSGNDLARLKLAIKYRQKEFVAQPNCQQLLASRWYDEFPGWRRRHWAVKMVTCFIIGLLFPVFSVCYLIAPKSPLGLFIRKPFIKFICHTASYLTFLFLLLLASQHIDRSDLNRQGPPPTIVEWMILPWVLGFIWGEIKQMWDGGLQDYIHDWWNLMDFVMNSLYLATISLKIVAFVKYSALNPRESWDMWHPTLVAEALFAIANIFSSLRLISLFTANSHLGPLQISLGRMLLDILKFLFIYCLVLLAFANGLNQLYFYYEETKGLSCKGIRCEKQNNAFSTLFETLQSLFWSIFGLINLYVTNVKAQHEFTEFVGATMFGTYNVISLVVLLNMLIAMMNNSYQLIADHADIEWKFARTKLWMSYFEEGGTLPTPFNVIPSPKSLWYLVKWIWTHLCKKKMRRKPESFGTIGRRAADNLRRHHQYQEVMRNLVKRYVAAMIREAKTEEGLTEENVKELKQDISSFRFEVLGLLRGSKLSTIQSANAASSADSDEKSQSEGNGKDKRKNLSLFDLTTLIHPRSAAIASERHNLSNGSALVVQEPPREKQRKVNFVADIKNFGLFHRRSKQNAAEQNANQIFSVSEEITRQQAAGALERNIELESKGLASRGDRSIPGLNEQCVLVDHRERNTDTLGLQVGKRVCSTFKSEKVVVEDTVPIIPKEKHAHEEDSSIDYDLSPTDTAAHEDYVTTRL

[3] = molecular target: T3, Lysine-specific demethylase 4C (Homo sapiens, UniProt Q9H3R0); assay: inhibition of JMJD2C H3K9me3 demethylation – biochemical, DELFIA europium, cherry-picked samples, dose response (AID 488835); type: functional
T3 sequence (Q9H3R0 whole entry): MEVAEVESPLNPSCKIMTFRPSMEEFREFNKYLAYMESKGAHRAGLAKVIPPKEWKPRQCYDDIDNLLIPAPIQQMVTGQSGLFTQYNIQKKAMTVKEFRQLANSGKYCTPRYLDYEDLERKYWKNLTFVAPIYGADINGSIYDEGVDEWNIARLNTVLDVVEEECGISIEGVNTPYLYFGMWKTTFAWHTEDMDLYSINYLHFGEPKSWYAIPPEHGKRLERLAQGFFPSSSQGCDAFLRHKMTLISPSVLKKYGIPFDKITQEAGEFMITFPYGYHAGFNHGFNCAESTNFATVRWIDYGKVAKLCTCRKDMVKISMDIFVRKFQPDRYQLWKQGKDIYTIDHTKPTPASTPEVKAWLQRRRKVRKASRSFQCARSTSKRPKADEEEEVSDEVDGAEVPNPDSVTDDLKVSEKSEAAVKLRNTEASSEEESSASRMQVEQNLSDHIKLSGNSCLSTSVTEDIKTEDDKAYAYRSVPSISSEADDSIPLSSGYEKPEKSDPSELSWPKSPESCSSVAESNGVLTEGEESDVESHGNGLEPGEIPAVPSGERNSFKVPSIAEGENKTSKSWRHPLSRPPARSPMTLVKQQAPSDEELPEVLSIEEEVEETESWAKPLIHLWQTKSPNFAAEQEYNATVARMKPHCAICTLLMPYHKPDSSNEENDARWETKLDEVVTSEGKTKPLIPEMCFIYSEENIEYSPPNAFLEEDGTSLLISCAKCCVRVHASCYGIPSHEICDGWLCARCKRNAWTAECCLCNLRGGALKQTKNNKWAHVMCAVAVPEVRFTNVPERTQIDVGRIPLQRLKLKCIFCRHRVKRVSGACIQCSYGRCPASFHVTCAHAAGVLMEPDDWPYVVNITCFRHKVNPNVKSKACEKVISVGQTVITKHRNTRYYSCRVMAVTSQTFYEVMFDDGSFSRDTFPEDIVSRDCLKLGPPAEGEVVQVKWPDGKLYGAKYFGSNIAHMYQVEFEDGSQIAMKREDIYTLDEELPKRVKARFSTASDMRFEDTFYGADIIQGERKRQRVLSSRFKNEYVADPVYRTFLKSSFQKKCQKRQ

[4] = tested on: INS1; assay: INS-1E survival protection against cytokine death – cell-based, luminescence, retest, dose response (AID 449756); type: functional; settings: Rattus norvegicus;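 note: cell death triggered by IL-1 beta plus TNF-alpha plus IFN-gamma mixture; protective hits raise ATP signal compared with cytokine alone wells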
[5] = blockade of melanocortin 4 receptor signaling – cell-based, plate reader, cherry pick, counter-screen for LGR2 antagonist project, dose response (AID 743444); type: functional;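 note: transfected HEK 293 cells stimulated with alpha-MSH peptide; potency of inhibitors of the alpha-MSH evoked signal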
[6] = A549 cell cytotoxicity, dose response, cytotoxicity control, plate reader, cherry-pick, antagonist series (AID 743412); type: functional, cell-based
[7] = viability loss in HEK293 cells – cell-based, plate reader, cherry-picked samples, cytotoxicity control, dose response (AID 743446); type: functional
[8] = toxicity toward HepG2 liver cells – cell-based, plate reader, cherry-pick, antagonist series, cytotoxicity control, dose response (AID 743416); type: functional
[9] = HepG2 cell cytotoxicity, dose response, cytotoxicity control for non-replicating M. tuberculosis project (AID 489018); type: functional; settings: Mycobacterium tuberculosis
[10] = cells; type: functional
[11] = THP-1 cell cytotoxicity, dose response, cytotoxicity control for non-replicating M. tuberculosis project (AID 489025); type: functional
[12] = Vero E6 cell cytotoxicity, dose response, cytotoxicity control for non-replicating M. tuberculosis project, secondary assay (AID 492998); type: functional, VeroE6; settings: Vero C1008
[13] = molecular target: Troponin, cardiac muscle (Homo sapiens, UniProt P19429+P45379+P63316); assay: Fluorescence-based biochemical high throughput dose response assay for activators of the calcium sensitivity of cardiac Regulated Thin Filaments (RTF). [Related pubchem assays (depositor defined):AID493008, AID493018, AID504382, AID504383]; type: protein-complex assay
[14] = molecular target: T4, Microphthalmia-associated transcription factor (Homo sapiens, UniProt O75030); assay: reducers of TRPM1 reporter luminescence, concentration series – cell-based, SK-MEL-5, cherry-picked, set 3, MITF inhibitor project, dose response (AID 493073); type: functional;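 note: SK-MEL-5 melanoma cells with luciferase driven by the MITF target TRPM1 promoter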
T4 sequence (O75030 whole entry): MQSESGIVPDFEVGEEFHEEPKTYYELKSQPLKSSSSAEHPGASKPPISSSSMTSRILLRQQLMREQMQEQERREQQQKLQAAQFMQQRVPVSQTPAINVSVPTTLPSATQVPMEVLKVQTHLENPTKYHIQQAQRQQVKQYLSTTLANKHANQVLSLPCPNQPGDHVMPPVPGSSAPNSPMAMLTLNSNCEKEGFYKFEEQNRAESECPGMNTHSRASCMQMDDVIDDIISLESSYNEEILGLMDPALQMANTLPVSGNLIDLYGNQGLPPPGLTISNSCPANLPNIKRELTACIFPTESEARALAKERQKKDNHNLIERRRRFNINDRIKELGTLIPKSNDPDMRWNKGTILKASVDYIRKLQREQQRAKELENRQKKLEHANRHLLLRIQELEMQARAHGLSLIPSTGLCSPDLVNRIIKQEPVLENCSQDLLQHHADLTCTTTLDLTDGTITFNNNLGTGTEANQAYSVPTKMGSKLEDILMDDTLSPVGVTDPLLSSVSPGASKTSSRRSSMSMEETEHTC

[15] = molecular target: Luciferin 4-monooxygenase (Photinus pyralis, UniProt P08659); assay: Counter Screen for Luciferase-based Assay Positives. [Related pubchem assays: 620, 618, 411 ]
[16] = tested on: HT-1080; assay: HT1080 cell viability loss – fluorescence readout (AID 620); type: functional, cell-based; settings: Homo sapiens
[17] = molecular target: Voltage-gated inwardly rectifying potassium channel KCNH2 (Homo sapiens, UniProt Q12809); settings: Potency;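 note: confirmatory quantitative high-throughput screen measuring inhibition of hERG channel activity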
Voltage-gated inwardly rectifying potassium channel KCNH2, sequence (Q12809 whole entry): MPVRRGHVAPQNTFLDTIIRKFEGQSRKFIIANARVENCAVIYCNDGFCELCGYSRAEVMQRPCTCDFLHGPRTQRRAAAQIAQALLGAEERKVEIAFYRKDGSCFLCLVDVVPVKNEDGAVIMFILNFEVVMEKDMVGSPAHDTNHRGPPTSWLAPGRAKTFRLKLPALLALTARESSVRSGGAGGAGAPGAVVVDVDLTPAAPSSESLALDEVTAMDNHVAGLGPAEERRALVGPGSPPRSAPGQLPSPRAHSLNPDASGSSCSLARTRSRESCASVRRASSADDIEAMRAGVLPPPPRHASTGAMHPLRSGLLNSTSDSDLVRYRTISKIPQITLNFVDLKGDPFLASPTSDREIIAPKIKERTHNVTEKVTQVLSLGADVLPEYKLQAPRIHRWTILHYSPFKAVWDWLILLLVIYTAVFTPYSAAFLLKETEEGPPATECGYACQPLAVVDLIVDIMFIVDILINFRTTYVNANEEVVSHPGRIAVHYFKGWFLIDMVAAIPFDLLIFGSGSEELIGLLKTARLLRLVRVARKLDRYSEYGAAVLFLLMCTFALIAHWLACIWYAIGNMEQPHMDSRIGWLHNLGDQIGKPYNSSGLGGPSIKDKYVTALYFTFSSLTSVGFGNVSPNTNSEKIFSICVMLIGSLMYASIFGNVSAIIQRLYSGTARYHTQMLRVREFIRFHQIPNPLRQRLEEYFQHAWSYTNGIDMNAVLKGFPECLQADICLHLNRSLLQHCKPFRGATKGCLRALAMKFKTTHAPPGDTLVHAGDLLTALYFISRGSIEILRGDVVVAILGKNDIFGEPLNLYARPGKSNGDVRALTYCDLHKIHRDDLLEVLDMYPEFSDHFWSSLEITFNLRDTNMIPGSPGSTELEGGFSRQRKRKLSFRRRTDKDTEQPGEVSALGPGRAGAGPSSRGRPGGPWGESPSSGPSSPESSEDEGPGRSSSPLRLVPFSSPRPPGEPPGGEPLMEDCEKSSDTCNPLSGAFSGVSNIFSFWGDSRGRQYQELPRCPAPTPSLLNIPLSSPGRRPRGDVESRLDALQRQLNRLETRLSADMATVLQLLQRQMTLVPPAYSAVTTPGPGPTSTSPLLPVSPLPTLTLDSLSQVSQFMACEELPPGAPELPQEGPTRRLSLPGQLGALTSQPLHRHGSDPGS

Luciferin 4-monooxygenase, sequence (P08659 whole entry): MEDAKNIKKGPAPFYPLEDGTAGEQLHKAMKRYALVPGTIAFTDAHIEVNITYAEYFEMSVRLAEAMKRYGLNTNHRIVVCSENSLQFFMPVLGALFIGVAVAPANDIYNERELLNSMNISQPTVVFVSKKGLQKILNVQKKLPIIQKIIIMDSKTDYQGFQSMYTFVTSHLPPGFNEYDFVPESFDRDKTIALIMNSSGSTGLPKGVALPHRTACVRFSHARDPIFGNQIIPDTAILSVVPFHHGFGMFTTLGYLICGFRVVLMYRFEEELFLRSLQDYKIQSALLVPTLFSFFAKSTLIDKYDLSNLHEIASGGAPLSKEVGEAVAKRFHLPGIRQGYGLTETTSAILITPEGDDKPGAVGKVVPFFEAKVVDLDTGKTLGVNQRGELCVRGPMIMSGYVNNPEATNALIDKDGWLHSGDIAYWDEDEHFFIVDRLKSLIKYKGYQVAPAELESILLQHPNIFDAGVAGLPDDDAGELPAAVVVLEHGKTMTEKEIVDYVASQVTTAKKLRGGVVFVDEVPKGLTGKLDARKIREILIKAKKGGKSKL

CCN(c1ccccc1)S(=O)(=O)c1ccc2ncc(C(=O)NCCOC)c(O)c2c1
IC50 [1]: 27.9 µM (active)

Cc1c(Cl)cccc1NC(S)=NCC(c1cccnc1)N(C)C (stereo unspecified)
EC50 [2]: 0.0013 µM (active)

Cn1c(Cc2ccccc2)nnc1SCC(=O)c1cccs1
IC50 [1]: > 50 µM (not active)

O=C(NCc1ccccn1)c1cn(Cc2ccccc2)nn1
AC50 [3]: > 60 µM (inactive)

CN(C)C(CNC(=O)c1ccc2[nH]cnc2c1)c1ccccc1 (stereo unspecified)
EC50 [2]: 0.473 µM (active)

COc1cc(CNCCO)cc(Cl)c1OCc1ccc(Cl)cc1Cl
AC50 [4]: 8.94 µM (active) | AC50 [5]: 43.2 µM (active) | AC50 [6]: 13.9 µM (active) | AC50 [7]: 15.6 µM (active) | AC50 [8]: 11.2 µM (active) | CC50 [9]: 15.1 µM (active) | IC50 [10]: 24.5 µM (active) | CC50 [11]: 12.5 µM (active) | CC50 [12]: 14.1 µM (active)

Cc1ccnc(N/C=C(\C#N)c2nc(-c3cccc(Br)c3)cs2)c1
EC50 [13]: 0.761 µM (active)

CCOC(=O)/C(=C/C=C1\Sc2cc(OCC)c(OCC)cc2N1CC)C(C)=O
EC50 [13]: 0.165 µM (active)

CCc1ccc(-c2cc(C(=O)Nn3cnnc3)c3ccccc3n2)cc1
AC50 [14]: 12.5 µM (active) | EC50 [15]: 2.73 µM (active) | EC50 [16]: > 50 µM (not active)

C[C@H](CO)N1C[C@H](C)[C@@H](CN(C)Cc2ccc3c(c2)OCO3)Oc2c(NC(=O)C3CCCCC3)cccc2C1=O
AC50 [3]: 13.1 µM (active)

COc1cc(CNC(=O)CCCCCCC(C)C)ccc1O [DIHYDROCAPSAICIN]
AC50 [17]: 35.5 µM (inconclusive)

Source: ChEMBL document CHEMBL1201862, “PubChem BioAssay data set” (2004)
